Columns and labels:
[1] = system: human lung fibroblast cell line (MRC-5); experiment: Cytotoxicity evaluation by MTT assay; format: cell-based; conditions: for cell survival: MRC-5 cells, 10 µg/mL, 48 h
Description: (§1) 3. Bioactivity and Toxicity Assays
(§2) Antimicrobial assay: According to the standard broth micro-dilution assays, following the Standards of European Committee on Antimicrobial Susceptibility Testing (v 7.3.1: Method for the determination of broth dilution minimum inhibitory concentrations of antifungal agents for yeasts) for Candida spp., and according to the standard broth micro-dilution assays, recommended by the National Committee for Clinical Laboratory Standards (M07-A8) for bacteria MIC values of compounds were determinate. Compounds were dissolved in DMSO at a concentration of 50 mg/mL, and the highest tested concentration was 250 µg/mL. The inoculums were 1x10^5 colony forming units (CFU/mL), for Candida species, and bacteria species, 5x10^5 colony forming units (CFU/mL). The MIC value was recorded as the lowest concentration that inhibited the growth after 24 h at 37 °C. Additionally, 5 µL from each well of 96 well plates was transferred to Luria Agar (LA) plates for bacteria and Sabouraud agar (SAB) plates for Candida spp. and incubated for an additional 24 h at 37 °C, to determine MBC (Minimum bactericidal/fungicidal concentration) values. In Table 1. Are labeled compounds showing a difference in MBC and previously determined MIC values.
Cytotoxicity evaluation: Antiproliferative activity was tested by MTT assay (3-(4,5-dimethylthiazol-2-yl)-2,5-diphenyltetrazoliumbromide) on a human lung fibroblast cell line (MRC-5; ATCC collection). Pre-grown (24 h) cell monolayers (1x10^4 cells per well) in RPMI 1640 medium supplemented with 100 μg/mL streptomycin, 100 U/mL penicillin, and 10% (v/v) FBS (all from Sigma, Munich, Germany) containing the tested compounds at concentrations ranging from 5 to 20 μg/mL were incubated in a humidified atmosphere of 95% air and 5% CO2 at 37 °C for 48 h. The cell viability (extent of MTT reduction) was measured spectrophotometrically at 540 nm using the Epoch 2000 multiplate reader, and the cell survival was expressed as a percentage of the control (untreated cells). Cytotoxicity was expressed as the concentration of the compound inhibiting cell growth by 50% (IC 50). […]

Caenorhabditis elegans = experiment: In vivo toxicity C. elegans survival assay; conditions: for survival rate: C. elegans, 50 µg/mL (highest tested concentration), 48 h
Procedure: 3. Bioactivity and Toxicity Assays […]
Compounds were dissolved in DMSO at a concentration of 50 mg/mL, and the highest tested concentration was 250 µg/mL. […]
In vivo toxicity C. elegans assay: The C. elegans survival assay was carried out as described previously with some modifications. 8 In brief, synchronized worms (L4 stage) were suspended in a medium containing 95% M9 buffer (3.0 g of KH2PO4, 6.0 g of Na2HPO4, 5.0 g of NaCl, and 1 mL of 1 M MgSO4 × 7H2O in 1 L of water), 5% LB (Luria-Bertani) broth (Oxoid, Basingstoke, UK), and 10 μg of cholesterol (Sigma -Aldrich, Munich, Germany) per mL. The experiment was carried out in 96 -well flat -bottomed microtiter plates (Sarstedt, Nümbrecht, Germany) in the final volume of 100 μL per wel l. 25 μL of this suspension of nematodes (25 –35 nematodes) were transferred to the wells of a 96 -well microtiter plate, where 50 μL of the medium was previously added. Next, 25 μL of a solvent control (DMSO) or 25 μL of a concentrated solution was added to the test wells. The final concentrations of the compounds were 50, 25, 10, and 5 µg/mL. Subsequently, the plates were incubated at 25 °C for 2 days. The fraction of dead worms was determined after 48 h by counting the number of dead worms and the total number of worms in each well, using a stereomicroscope (SMZ143-N2GG, Motic, Germany).
As a negative control experiment, nematodes were exposed to the medium containing 1% […]
Ergosterol biosynthesis assay: Ergosterol levels were measured according to the published procedure with some minor modifications. 10 Briefly, a sing le C. albicans colony from an overnight Sabouraud dextrose agar plate was used to inoculate 50 ml of Sabouraud dextrose broth containing 0.5 MIC concentrated compounds. Incubation was performed for 18 h at 37 °C on the rotary shaker at 180 rpm. Cells were harvested by centrifugation at 3000 rpm for 5 min and washed once with sterile distilled water. The net wet weight of the cell pellet was determined. Three milliliters of 25% alcoholic potassium hydroxide solution (25 g of KOH and 35 ml of sterile distill ed water, brought to 100 ml with 100% ethanol), was added to each pellet and vortex mixed for 1 min and incubated in an 85 °C water bath for 1 h. Tubes were cooled to room temperature and extraction of sterols was done with the addition of a mixture of 1 ml of sterile distilled water and 3 ml of n-heptane followed by vigorous vortex mixing for 3 min. The heptane layer was used for spectrophotometrically measuring ergosterol concentrations by scanning absorbance between 240 nm and 300 nm using Ultrospec 3300pro 573 (Amer sham Biosciences, Amersham, UK).

[2] = system: C. albicans ATCC10231 biofilm formation; experiment: Anti-biofilm activity assessment (crystal violet); format: cell-based, Candida albicans; conditions: for inhibition of biofilm formation (in words): data not shown
Procedure: Anti-biofilm activity assessment: The effect of compounds on biofilms formation was determined on C. albicans ATCC 10231 strain. Anti -biofilm assays were conducted using a previously reported methodology with small modifica tions.9 The assay was carried out in 96 - well round-bottom polystyrene microtiter plates. Cells wer e harvested from overnight grown cultures, washed twice with sterile phosphate -buffered saline (PBS; Sigma -Aldrich, Munich, Germany), and resuspended in RPMI 1640 medium (Sigma -Aldrich) containing 2% glucose (w/v) at a concentration of 1 × 10^5 CFU/mL. C. albicans suspension was incubated with 0.5 MIC, 1 MIC, and 2 MIC compounds concentration in 200.0 μL final volume per well for 48 h at 37 °C to allow biofilm formation. Biofilm growth was analyzed by crystal violet (CV) staining of adherent cells and the a bsorbance at 590.0 nm was read on a Tecan Infinite 200 Pro multiplate reader (Tecan Group Ltd., Männedorf, Switzerland). […]

[3] = system: two S. aureus strains and B. subtilis ATCC6633; experiment: Antimicrobial assay, Gram-positive bacteria; format: cell-based; conditions: from MIC values
Description: as §1
as §2, with “MIC values. […]” for “MIC values.”

Row | Structure (SMILES) | cell survival [1] | selectivity index (SI) ([1]; cytotoxicity versus antibiotic activity, calculation not described) | survival rate (Caenorhabditis elegans) | inhibition of biofilm formation (in words) [2] | inhibition of biofilm formation ([2]; sub-inhibitory concentration (0.5 times MIC), 48 h) | improvement of antibacterial activity compared to sorrentanone (7) [3] | in vivo toxicity (in words) (Caenorhabditis elegans; C. elegans model)
1 | CC1=C(O)C(=O)C(C)=C(C(=O)OCc2ccccc2)C1=O [compound 41] | over 60% | 0.77 | over 90% | displayed inhibition of biofilm formation | 60–77% | two- to four-fold improved activity | –
2 | CC1=C(O)C(=O)C(C)=C(C(=O)OCCCC(C)C)C1=O [compound 36] | over 60% | – | over 90% | displayed inhibition of biofilm formation | – | two- to four-fold improved activity | comparatively lower in vivo toxicity
